# Like-named read-outs stand apart in the source and are kept apart here.
# Assays:
# [1] = tested on: LPS-driven NF-kB activation, eLUCidate Raw 264.7 NF-kB reporter cell line; experiment: Anti-inflammatory activity, NF-kB luciferase reporter; format: cell-based, murine; settings: 10 ng/ml LPS from E. coli, 6 h
# Method: (§1) The inhibitory activity of HG2, HG4 and comparator compounds against LPS and LTA was assessed using eLUCidate™ Raw 264.7 NF-kB reporter cell line (AMSBIO) as previously described. The eLUCidate NF-kB reporter cell line is a stably transfected Raw 264.7 cell line which expresses the Renilla luciferase reporter gene under the transcriptional control of the NF-kB response element, a key transcription factor involved in immune and inflammatory responses. This reporter cell line has been used to measure the induction of various toll-like receptors (TLR) by ligands, including LPS and LTA, therefore providing an effective way to evaluate inhibitors of their activations. Briefly, cells were grown and maintained following the manufacturer’s instructions in Dulbecco’s modified essential medium (DMEM) supplemented with 10% fetal calf serum (FCS), 1% L-glutamine, 1% antibiotics (Invitrogen) and containing 3 µg/ml of puromycin (Sigma-Aldrich, UK). To test the inhibitory activity of HG2 and HG4 on LPS or LTA-driven NF-kB activation, eLUCidate™ Raw 264.7 cells grown on 75 cm^2 flasks were detached using trypsin-EDTA solution (Thermofisher, UK) and seeded into 96-well cell culture plates (Greiner Bio-one, UK) at ~25,000 cells per well (counted using Mallasez’s chamber). The next day, wells were emptied, and cells were exposed to optimal concentrations of LPS or LTA determined from preliminary experiments, (i.e. 10 ng/ml of LPS from E. coli or 10 µg/ml of LTA from S. aureus (Invivogen, UK)) in the presence of increasing concentrations of HG2 or HG4 (from 0 to 500 µg/ml, serial 1:2 dilutions). Pyrrolidine dithiocarbamate (PDTC, 100 µM) and polymyxin B (PMB, 100 µM) (Sigma-Aldrich, UK) were used as positive controls based on their well-known activity as anti-inflammatory molecules and blockers/neutralisers of LPS and LTA, respectively. Importantly, all steps were performed using non-pyrogenic plastics and RNase/DNase molecular biology tips to limit the risk of the presence of a trace of LPS/LTA. After 6 h incubation at 37 °C and 5% CO2, wells were emptied, and the cells were treated with 70 µl of ice-cold PBS containing 1% Triton X-100. After 10 min incubation on ice under orbital shaking at 200 rpm, 50 µL of cell lysates were collected and transferred into white 96-well luminescence plates (Dominique Dutscher) already containing 100 µL of Renilla luciferase substrate (Yelen, France). Luminescence signals of the wells were immediately measured using a microplate reader (Biotek Synergy Mx, UK). The luminescence values were expressed as a percentage of control inflammation corresponding to values obtained after treatment with LPS or LTA in the absence of an inhibitor. The IC50 values of PDTC, PMB, HG2 or HG4 on LPS or LTA-mediated inflammation (i.e. the concentration of molecule causing a reduction of 50% of the luciferase’s induction caused by LPS or LTA) were calculated using GraphPad® Prism 7 software.
# [2] = tested on: LTA-driven NF-kB activation, eLUCidate Raw 264.7 NF-kB reporter cell line; experiment: as above; format: cell-based, murine; settings: 10 µg/ml LTA from S. aureus, 6 h
# Method: as §1
# [3] = tested on: P. aeruginosa PA01; experiment: microbe, parasite or virus in culture; format: cell-based, Pseudomonas aeruginosa
# Method: (§2) To determine the antimicrobial activity of the new antimicrobial peptides, HG2 and HG4, their minimum inhibitory concentrations (MICs) were determined by broth microdilution method[51] in cation adjusted Mueller Hinton broth (MHB) following the International Organisation for Standardisation (ISO) 20776-1 standard for MIC testing using a final bacterial inoculum of 5 × 10^5 CFU/ml[52]. […] The peptides dissolved in sterile distilled water were added to bacteria culture and incubated overnight at appropriate conditions. The MICs of the peptides and comparator antibiotics were recorded after 18–24 h. The minimum bactericidal concentrations (MBCs) were also determined and were taken as the lowest concentration of the antimicrobial that prevented the growth of bacterial cells after the subculture of cells (from MIC treatment) onto antibiotic-free media.
# [4] = tested on: MRSA USA300 cells; experiment: Time-kill kinetics; format: cell-based, Staphylococcus aureus; settings: 3x MIC, comparator antibiotics, time not stated
# Method: The bactericidal activity of HG2, HG4 and comparator antimicrobial compounds was assessed using exponential-phase cultures[14] of MRSA USA300 grown in MHB (1 × 10^6-8 CFU/ml). […] Samples were taken at different time points, serially diluted and inoculated onto MH agar plates using the spread plate technique. After overnight incubation, the colony-forming units per millilitre of cell culture (CFU/ml) was calculated. Experiments were performed in quadruplicates.
# [5] = tested on: S. aureus USA300 BAA-1717; experiment: microbe, parasite or virus in culture; format: cell-based, Staphylococcus aureus; settings: Staphylococcus aureus, BAA-1717 / MRSA / USA300
# Method: as §2
# [6] = tested on: S. aureus ATCC 33591; experiment: microbe, parasite or virus in culture; format: cell-based, Staphylococcus aureus; settings: Staphylococcus aureus, ATCC 33591 / MRSA
# Method: as §2
# [7] = tested on: S. aureus EMRSA-15; experiment: microbe, parasite or virus in culture; format: cell-based, Staphylococcus aureus
# Method: as §2
# [8] = tested on: L. monocytogenes NCTC 11994; experiment: microbe, parasite or virus in culture; format: cell-based, Listeria monocytogenes
# Method: as §2
# [9] = tested on: Ent. faecalis JH2-2; experiment: microbe, parasite or virus in culture; format: cell-based, Enterococcus faecalis
# Method: as §2
# [10] = tested on: Sal. typhimurium SL1344; experiment: microbe, parasite or virus in culture; format: cell-based, Salmonella enterica serovar Typhimurium
# Method: as §2
# [11] = tested on: E. coli K12; experiment: microbe, parasite or virus in culture; format: cell-based, Escherichia coli
# Method: as §2
# [12] = tested on: S. aureus RN4220; experiment: MIC, broth microdilution; format: cell-based, Staphylococcus aureus; settings: sensitive
# Method: as §2
# [13] = tested on: A. baumannii (IMI, MER resistant; strain ID not given); experiment: microbe, parasite or virus in culture; format: cell-based, Acinetobacter baumannii; settings: A. baumannii, no strain ID, MER
# Method: as §2
# [14] = tested on: A. baumannii 515722; experiment: microbe, parasite or virus in culture; format: cell-based, Acinetobacter baumannii; settings: A. baumannii 515722; sensitive
# Method: as §2
# [15] = tested on: A. baumannii 515908; experiment: microbe, parasite or virus in culture; format: cell-based, Acinetobacter baumannii; settings: A. baumannii 515908; sensitive
# Method: as §2
# [16] = tested on: A. baumannii 515785; experiment: microbe, parasite or virus in culture; format: cell-based, Acinetobacter baumannii; settings: A. baumannii 515785; OXA-23, OXA-50
# Method: as §2
# [17] = tested on: P. aeruginosa (CF) C3719; experiment: microbe, parasite or virus in culture; format: cell-based, Pseudomonas aeruginosa; settings: P. aeruginosa (CF) C3719
# Method: as §2
# [18] = tested on: P. aeruginosa; experiment: microbe, parasite or virus in culture; format: cell-based, Pseudomonas aeruginosa; settings: P. aeruginosa; Supplementary Table 5
# Method: as §2
# [19] = tested on: P. aeruginosa (CF) AMT0060; experiment: microbe, parasite or virus in culture; format: cell-based, Pseudomonas aeruginosa; settings: P. aeruginosa (CF) AMT0060
# Method: as §2
# [20] = tested on: P. aeruginosa (CF) LES400; experiment: microbe, parasite or virus in culture; format: cell-based, Pseudomonas aeruginosa; settings: P. aeruginosa (CF) LES400
# Method: as §2
# [21] = tested on: K. pneumoniae 526903; experiment: microbe, parasite or virus in culture; format: cell-based, Klebsiella pneumoniae; settings: K. pneumoniae 526903; sensitive
# Method: as §2
# [22] = tested on: K. pneumoniae ATCC 700603; experiment: microbe, parasite or virus in culture; format: cell-based, Klebsiella pneumoniae; settings: K. pneumoniae ATCC 700603; SHV-18
# Method: as §2
# [23] = tested on: K. pneumoniae NCTC 13442; experiment: microbe, parasite or virus in culture; format: cell-based, Klebsiella pneumoniae; settings: K. pneumoniae NCTC 13442; OXA-48
# Method: as §2
# [24] = tested on: K. pneumoniae 518842; experiment: microbe, parasite or virus in culture; format: cell-based, Klebsiella pneumoniae; settings: K. pneumoniae 518842; CTX-M
# Method: as §2
# [25] = tested on: EMRA-15; experiment: microbe, parasite or virus in culture; format: cell-based, Staphylococcus aureus; settings: EMRA-15; Supplementary Table 5
# Method: as §2
# [26] = tested on: S. aureus; experiment: microbe, parasite or virus in culture; format: cell-based, Staphylococcus aureus; settings: S. aureus; Supplementary Table 5
# Method: as §2
# [27] = tested on: List. monocytogenes; experiment: microbe, parasite or virus in culture; format: cell-based, Listeria monocytogenes; settings: List. monocytogenes; Supplementary Table 5
# Method: as §2
# [28] = tested on: Ent. faecalis; experiment: microbe, parasite or virus in culture; format: cell-based, Enterococcus faecalis; settings: Ent. faecalis; Supplementary Table 5
# Method: as §2
# [29] = tested on: Sal. typhimurium; experiment: microbe, parasite or virus in culture; format: cell-based, Salmonella enterica serovar Typhimurium; settings: Sal. typhimurium; Supplementary Table 5
# Method: as §2
# [30] = tested on: E. coli; experiment: microbe, parasite or virus in culture; format: cell-based, Escherichia coli; settings: E. coli; Supplementary Table 5
# Method: as §2
compound,measurement,setting,value
"S=C(S)N1CCCC1 [PDTC, Pyrrolidine dithiocarbamate, reference compound]",IC50,"[1]; Mus musculus, RAW264.7, read-out: IC50, LPS-mediated inflammation",10.7 ± 1.2 µg/mL
same,IC50,"[2]; Mus musculus, RAW264.7, read-out: IC50, LTA-mediated inflammation",10.8 ± 1.29 µg/mL
CN[C@H](CC(C)C)C(=O)N[C@H]1C(=O)N[C@@H](CC(N)=O)C(=O)N[C@H]2C(=O)N[C@H]3C(=O)N[C@H](C(=O)N[C@H](C(=O)O)c4cc(O)cc(O)c4-c4cc3ccc4O)[C@H](O)c3ccc(c(Cl)c3)Oc3cc2cc(c3O[C@@H]2O[C@H](CO)[C@@H](O)[C@H](O)[C@H]2O[C@H]2C[C@](C)(N)[C@H](O)[C@H](C)O2)Oc2ccc(cc2Cl)[C@H]1O [Vancomycin],MIC,"[3]; Pseudomonas aeruginosa, PA01",64 µg/mL
same,reduction in viable cells (time-kill),[4],≥ 2 log10 CFU/ml
same,MIC,[5],2 µg/mL
same,MIC,[6],2 µg/mL
same,MIC,"[7]; Staphylococcus aureus, MRSA",2 µg/mL
same,MIC,"[8]; Listeria monocytogenes, NCTC11994",64 µg/mL
same,MIC,"[9]; Enterococcus faecalis, JH22",64 µg/mL
same,MIC,"[10]; Salmonella enterica, TYPHIMURIUM",256 µg/mL
same,MIC,"[11]; Escherichia coli, K12",128 µg/mL
same,MIC,"[12]; Staphylococcus aureus, read-out: MIC",1 µg/mL
polymyxin B [reference compound],MIC,[13],0.25 µg/mL
same,MIC,[14],0.25 µg/mL
same,MIC,[15],0.5 µg/mL
same,MIC,[16],0.5 µg/mL
same,MIC,[17],1 µg/mL
same,Minimum inhibitory Concentrations MICs,[18],1.95 µg/mL
same,MIC,[19],0.5 µg/mL
same,MIC,[20],1 µg/mL
same,MIC,[3]; P. aeruginosa PA01,2 µg/mL
same,MIC,[21],4 µg/mL
same,MIC,[22],2 µg/mL
same,MIC,[23],8 µg/mL
same,MIC,[24],2 µg/mL
same,Minimum inhibitory Concentrations MICs,[25],250 µg/mL
same,Minimum inhibitory Concentrations MICs,[26],250 µg/mL
same,MIC,"[7]; S. aureus EMRSA-15, resistances MRSA, Cip",256 µg/mL
same,Minimum inhibitory Concentrations MICs,[27],62.5 µg/mL
same,MIC,[8]; L. monocytogenes NCTC 11994,64 µg/mL
same,MIC,[9]; Ent. faecalis JH2-2,32 µg/mL
same,Minimum inhibitory Concentrations MICs,[28],31.25 µg/mL
same,"IC50, LPS-mediated inflammation",[1],62.26 ± 4.01 µg/mL
same,"IC50, LTA-mediated inflammation",[2],61.34 ± 3.47 µg/mL
same,MIC,[10]; Sal. typhimurium SL1344,2 µg/mL
same,Minimum inhibitory Concentrations MICs,[29],1.95 µg/mL
same,Minimum inhibitory Concentrations MICs,[30],1.95 µg/mL
same,MIC,[11]; E. coli K12,2 µg/mL
same,MIC,[12],256 µg/mL
